Source: patent US11401271B2, “Fused heterocyclic compound, pyrazole-ring-containing fused heterocyclic compound, agricultural composition containing thereof, and method of using the composition” (SOUTH CHINA AGRICULTURAL UNIVERSITY, priority 2017, dated 2022)

Tests used:
Experiment in all cases: whole plant or invertebrate
Assay type in all cases: in vivo
Solenopsis invicta = conditions: 100 ppm, water test tube poison-feeding
Summary of the method: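 Fire ants fed compound by water test-tube poison-feeding at 100 ppm in aqueous 0.05% Tween-80/5% honey (from 10 g/L DMSO stock), kept at 25 °C. Live and dead ants counted at 24 and 72 h; mortality (%) calculated relative to live ants in the untreated control.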

Plutella xylostella = conditions: 500 ppm; 2nd-instar larvae, leaf immersion feeding
Summary of the method: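 Cabbage leaf discs dipped 5 s in compound at 500 ppm (0.05% Tween-80 aqueous), air-dried, fed to about 35 2nd-instar larvae at 28° C., triplicate. Dead larvae counted after 24 h; mortality (%) corrected against Tween-80 control.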

Spodoptera exigua = conditions: 500 ppm, 2nd-instar larvae, leaf immersion feeding; for Spodoptera exigua Mortality (%) 500 ppm: 24 hours
Summary of the method: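 Cabbage leaf discs dipped 5 s in 500 ppm compound (0.05% Tween-80 aqueous), air-dried, fed to about 35 2nd-instar larvae at 28° C, three replicates. Deaths counted at 24 h; mortality corrected against Tween-80 control.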

Aphis craccivora = conditions: 500 ppm, wingless adults; for Aphis craccivora Mortality (%) 500 ppm: impregnation method, 24 hours
Summary of the method: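 Wingless adults feeding on bean sprouts were dipped with the sprouts for 5 s in 500 ppm compound in aqueous 0.05% Tween-80, air-dried, then held at 23° C. Dead aphids counted after 24 h, triplicate, with 0.05% Tween-80 as control. Mortality (%) = (control live − treated live)/control live × 100.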

Row | Compound | Solenopsis invicta Mortality (%) 100 ppm 24 h (Solenopsis invicta; 24 h) [%] | Solenopsis invicta Mortality (%) 100 ppm 72 h (Solenopsis invicta; 72 h) [%] | Plutella xylostella Mortality (%) 500 ppm (Plutella xylostella) [%] | Spodoptera exigua Mortality (%) 500 ppm (Spodoptera exigua) [%] | Aphis craccivora Mortality (%) 500 ppm (Aphis craccivora) [%] | Solenopsis invicta Mortality (%) 24 h (Solenopsis invicta; 24 h) [%] | Solenopsis invicta Mortality (%) 72 h (Solenopsis invicta; 72 h) [%] | Plutella xylostella Mortality (%) (Plutella xylostella) | Spodoptera exigua Mortality (%) (Spodoptera exigua) | Aphis craccivora Mortality (%) (Aphis craccivora; immersion 5 seconds, counted after 24 hours)
1 | CC(=O)CC1(C(=O)C(F)(F)F)Nc2c([S+]([O-])C(F)(F)F)c(C#N)nn2-c2ncc(C(F)(F)F)cc21 (stereo not drawn) [a-26] | 34 | 100 | 100 | 100 | 100 |  |  |  |  | 
2 | N#Cc1nn2c(c1[S+]([O-])C(F)(F)F)NC(Cc1ccccc1)(C(=O)C(F)(F)F)c1cc(C(F)(F)F)cnc1-2 (stereo not drawn) [a-27] | 25 | 100 | 100 | 100 | 100 |  |  |  |  | 
3 | COC(=O)CC1(C(=O)C(F)(F)F)Nc2c([S+]([O-])C(F)(F)F)c(C#N)nn2-c2ncc(C(F)(F)F)cc21 (stereo not drawn) [a-28] | 23 | 99 | 100 | 95 | 100 |  |  |  |  | 
4 | N#Cc1nn2c(c1[S+]([O-])C(F)(F)F)NC(CBr)(C(=O)C(F)(F)F)c1cc(C(F)(F)F)cnc1-2 (stereo not drawn) [a-29] | 14 | 96 | 100 | 91 | 100 |  |  |  |  | 
5 | N#CCC1(C(=O)C(F)(F)F)Nc2c([S+]([O-])C(F)(F)F)c(C#N)nn2-c2ncc(C(F)(F)F)cc21 (stereo not drawn) [a-30] | 20 | 97 | 96 | 90 | 100 |  |  |  |  | 
6 | CC(=O)C1(CC(F)(F)F)Nc2c([S+]([O-])C(F)(F)F)c(C#N)nn2-c2ncc(C(F)(F)F)cc21 (stereo not drawn) [a-36] | 14 | 91 | 100 | 96 | 100 |  |  |  |  | 
7 | CC(=O)C1(CC(=O)C(F)(F)F)Nc2c([S+]([O-])C(F)(F)F)c(C#N)nn2-c2ncc(C(F)(F)F)cc21 (stereo not drawn) [a-37] | 15 | 99 | 100 | 96 | 100 |  |  |  |  | 
8 | N#Cc1nn2c(c1[S+]([O-])C(F)(F)F)NC(Cl)(Cl)c1cc(C(F)(F)F)cnc1-2 (stereo not drawn) [a-44, 5,5-dichloro-7-trifluoromethyl-3-trifluoromethylsulfinyl-4,5-dihydropyrazole[1,5-α]quinazoline[3,2-e]pyridine-2-cyano] | 15 | 95 | 100 | 95 | 100 |  |  |  |  | 
9 | N#Cc1nn2c(c1[S+]([O-])C(F)(F)F)NC(Cl)(CBr)c1cc(C(F)(F)F)cnc1-2 (stereo not drawn) [a-45] | 20 | 90 | 100 | 91 | 100 |  |  |  |  | 
10 | CC1(C)Nc2c([S+]([O-])C(F)(F)F)c(C#N)nn2-c2ncc(C(F)(F)F)cc21 (stereo not drawn) [a-51] | 16 | 95 | 91 | 89 | 100 |  |  |  |  | 
11 | N#Cc1nn2c(c1[S+]([O-])C(F)(F)F)NC(C#N)(C#N)c1cc(C(F)(F)F)cnc1-2 (stereo not drawn) [a-52] | 20 | 89 | 100 | 89 | 91 |  |  |  |  | 
12 | COC(=O)CC1(C#N)Nc2c([S+]([O-])C(F)(F)F)c(C#N)nn2-c2ncc(C(F)(F)F)cc21 (stereo not drawn) [a-56] | 16 | 93 | 100 | 90 | 100 |  |  |  |  | 
13 | N#Cc1nn2c(c1[S+]([O-])C(F)(F)F)NC(C#N)(CC(=O)C(F)(F)F)c1cc(C(F)(F)F)cnc1-2 (stereo not drawn) [a-57] | 24 | 100 | 100 | 100 | 100 |  |  |  |  | 
14 | N#CCC1(C(F)(F)F)Nc2c([S+]([O-])C(F)(F)F)c(C#N)nn2-c2ncc(C(F)(F)F)cc21 (stereo not drawn) [a-59] | 28 | 97 | 96 | 91 | 100 |  |  |  |  | 
15 | COC(=O)CC1(C(F)(F)F)Nc2c([S+]([O-])C(F)(F)F)c(C#N)nn2-c2ncc(C(F)(F)F)cc21 (stereo not drawn) [a-62] | 21 | 99 | 100 | 100 | 100 |  |  |  |  | 
16 | N#Cc1nn2c(c1[S+]([O-])C(F)(F)F)NC(CC(=O)C(F)(F)F)(C(F)(F)F)c1cc(C(F)(F)F)cnc1-2 (stereo not drawn) [a-63] | 24 | 100 | 100 | 100 | 100 |  |  |  |  | 
17 | COC(=O)C1Nc2c([S+]([O-])C(F)(F)F)c(C#N)nn2-c2ncc(C(F)(F)F)cc21 (stereo not drawn) [a-64] | 20 | 99 | 100 | 99 | 100 |  |  |  |  | 
18 | COC(=O)CC1Nc2c([S+]([O-])C(F)(F)F)c(C#N)nn2-c2ncc(C(F)(F)F)cc21 (stereo not drawn) [a-65] | 26 | 100 | 100 | 100 | 100 |  |  |  |  | 
19 | N#Cc1nn2c(c1[S+]([O-])C(F)(F)F)NC(C(=O)C(F)(F)F)c1cc(C(F)(F)F)cnc1-2 (stereo not drawn) [a-71] | 24 | 100 | 100 | 99 | 100 |  |  |  |  | 
20 | N#Cc1nn2c(c1[S+]([O-])C(F)(F)F)NC(C#N)c1cc(C(F)(F)F)cnc1-2 (stereo not drawn) [a-72] | 20 | 91 | 96 | 89 | 100 |  |  |  |  | 
21 | N#Cc1nn2c(c1[S+]([O-])C(F)(F)F)NC(Cl)c1cc(C(F)(F)F)cnc1-2 (stereo not drawn) [a-80] | 10 | 100 | 91 | 85 | 100 |  |  |  |  | 
22 | COC(=O)C1Nc2c([S+]([O-])C(F)(F)F)c(C(F)(F)F)nn2-c2ncc(C(F)(F)F)cc21 (stereo not drawn) [a-87] | 20 | 97 | 96 | 100 | 100 |  |  |  |  | 
23 | COC(=O)CC1Nc2c([S+]([O-])C(F)(F)F)c(C(F)(F)F)nn2-c2ncc(C(F)(F)F)cc21 (stereo not drawn) [a-88] | 34 | 100 | 100 | 100 | 100 |  |  |  |  | 
24 | N#CC1Nc2c([S+]([O-])C(F)(F)F)c(C(F)(F)F)nn2-c2ncc(C(F)(F)F)cc21 (stereo not drawn) [a-95] | 21 | 92 | 96 | 89 | 100 |  |  |  |  | 
25 | CC=CC1Nc2c([S+]([O-])C(F)(F)F)c(C(F)(F)F)nn2-c2ncc(C(F)(F)F)cc21 (stereo not drawn) [a-109] | 20 | 90 | 95 | 89 | 100 |  |  |  |  | 
26 | COC(=O)CC1(C(=O)OC)Nc2c(Cl)c(C#N)nn2-c2ncc(C(F)(F)F)cc21 (stereo not drawn) [a-133] | 24 | 100 | 100 | 100 | 100 |  |  |  |  | 
27 | COC(=O)CC1(C(=O)OC)Nc2c([S+]([O-])C(F)(F)F)c(C#N)nn2-c2cncc(Cl)c21 (stereo not drawn) [b-1] |  |  |  |  |  | 20 | 97 | 100 | 100 | 100
